Test results from US10085933B2, “Cosmetic use of an essential oil of Laserpitium siler L. for keratin materials” (L'OREAL, priority 2013, dated 2018).

Test system: dermal capillaries of normal human skin maintained alive
Assay: Vascular modulation (vasodilation/vasoconstriction) in a model of normal human skin maintained alive; histological morphometry of dermal capillaries
Format: cell-based
Settings: 1 μM noradrenalin in culture medium, 48 hours organ culture; for percentage of dilated vessels (dilated capillaries): mean of six skin samples, control skin 74.8 ± 20.8; for mean area occupied by the lumen of the blood vessels (capillaries) in the dermis: control skin 153.6 ± 74.4
Text: The object of this study is to analyse the effect on vascular modulation, namely vasodilation or vasoconstriction, of the essential oil of Laserpitium siler L. evaluated in a model of normal human skin maintained alive.
The analyses are histological by morphometric quantification of the calibre of the dermal capillaries and semi-quantitative evaluation of the oedema.
Fragments of normal human skin are obtained from a plastic surgery. They are placed in inserts, which are themselves positioned on culture wells. Culture medium specifically adapted to survival maintenance is added to the bottom of the wells, a passage being made by slow diffusion between the two compartments via a porous membrane (3 μm).
The second positive control consisted in adding 1 μM noradrenalin to the culture medium so as to obtain vasoconstriction of the dermal capillaries.
The essential oil of Laserpitium siler L. at the test concentrations dissolved in ethanol is added to the culture medium.
The skin fragments are then maintained in organ culture for 48 hours in an oven under a humid atmosphere, at 37° C. and in the presence of 5% CO2.
The skin fragments are fixed in Bouin liquid and included in paraffin. After staining with haemalum-eosin, two criteria are evaluated on the dermis: the oedema and the calibre of the capillaries.
After staining with haemalum-eosin, the vascular dilation is evaluated by counting the number of dilated blood vessels on the entire histological slice (16 fields at magnification 40). This number is carried over to the total number of blood vessels in order to calculate the percentage of dilated vessels.
Moreover, a morphometric analysis of the area (μm^2) occupied by the lumen of the blood vessels was performed in order to determine the mean area (μm^2) occupied in the dermis by the vessels.
A mean is calculated for each parameter from the results obtained on the six skin samples. The statistical analysis was performed via the “reduced deviation” Student test or paired-samples test, with a risk a of 5%.

Which “percentage of dilated vessels (dilated capillaries)” value does the source give for `NC[C@H](O)c1ccc(O)c(O)c1` [noradrenalin] here?
Its value is 52.5 ± 20.6%.

What about the “percentage of dilated vessels (dilated capillaries)” value (listed as Noradrenalin) of the same compound?
Its value is 52.5%.

What about the “mean area occupied by the lumen of the blood vessels (capillaries) in the dermis” value of the same compound?
The value was 93.7 ± 65.7 μm^2.

What about the “mean area occupied by the lumen of the blood vessels (capillaries) in the dermis” value (listed as Noradrenalin) of the same compound?
The value was 93.7 μm^2.
